In patent US20250235415A1, “MODULATION OF HUMAN BREAST MILK COMPOSITION” (LUNDQUIST INSTITUTE FOR BIOMEDICAL INNOVATION AT …, priority 2022, published 2025):
Entries after “also recorded” stand apart in the source; their conditions may differ. Where a name gives a salt, the structure may show the parent alone. Read-outs that look alike come from different tables or passages of the source.

Columns and labels:
infant gut microbiota = experiment: TIM-2 in vitro proximal colon model inoculated with infant feces; design: species or system human; settings: high dose LNnT (1000 mg/L) with infant formula
Procedure: Preliminary Data on Effect of HMOs on infant microbiome: These in vitro studies were performed with TIM-2 107-121 inoculated with feces from 3-month old breast-fed infants (pooled microbiota of 5 infants).
Effect of HMO lacto-N-neotetraose (LNnT) on microbiome metabolic activity: We studied the effect of the most abundant HMOs LNnT (200 and 1000 mg/L) on the metabolic activity of the gut microbiota in TIM-2 when exposed to infant formula.
TIM-2 in vitro Colon Model: TIM-2 simulates the colon and consists of four interconnected compartments containing flexible membranes in which peristaltic movements are mimicked. Conditions of healthy human infants are simulated including: body temperature, lumen pH, composition and rate of secretion fluids, delivery of a predigested substrate from the ‘ileum’, mixing and transport of intestinal contents by peristalsis, absorption of water and microbial metabolites through a dialysis system, and presence of a complex, high density, metabolically active and anaerobic microbiota of healthy human infants. The dialysis system prevents accumulation of microbial metabolites, which would otherwise inhibit or kill gut microbiota. The model will be inoculated with a pooled microbiota of healthy human infants (˜2 months) using feces collected (diaper samples) from 10 volunteers and pooled in an anaerobic cabinet to allow for a standardized microbiota. […]

[1] = tested on: mammary epithelial cells (MECs); experiment: Cell permeability: FITC and FITC-dextran flux from basolateral to apical compartment; type: cell-based, mouse
Procedure: Cell Permeability: To assess whether mammary epithelial permeability was altered by the treatments, we measured the unidirectional flux of fluorescein isothiocyanate (FITC, molecular weight 376) and FITC-labeled dextran 3000 (FITC-dex) from the basolateral to the apical compartments. MECs were prepared as stated above and treated with palmitate and orlistat as described above. After 2 days, FITC and FITC-dex (0.5 mg/mL) were added to the basolateral chamber, and the cells were incubated for 1 h. Thereafter, the basolateral and apical media were aspirated separately, and fluorescence intensity was measured at 490/520 nm excitation/emission maxima. The permeability of the cells is expressed as percent of flux into the apical chamber/total FITC administered into the basolateral chamber.

[2] = tested on: mammary epithelial cells (MECs); experiment: 3-D mouse mammary epithelial cell (MEC) primary culture: milk and lipid synthesis and secretion; type: cell-based; settings: for MEC "milk" β-casein protein expression: palmitate 50, 100 μmol/L; for MEC "milk" β-casein protein expression / MEC "milk" triglyceride secretion / concentration / palmitate-induced MEC "milk" triglyceride concentration: 48 h; for MEC "milk" β-casein protein expression / MEC "milk" triglyceride secretion / concentration: (sodium salt); for MEC "milk" triglyceride secretion / concentration: palmitate 50, 100 μmol/L in basolateral chamber, vs untreated MECs; for palmitate-induced MEC "milk" triglyceride concentration: orlistat 100 μmol/L together with palmitate 100 μmol/L
Procedure: The growth medium consisted of RPMI-1640 supplemented with 10% FBS, 10 μg/mL of insulin, 10 ng/ml of EGF, 100 U/mL of penicillin, and 100 μg/mL of streptomycin. The lactogenic medium consisted of growth medium plus 0.5 U/mL of prolactin and 1 μM dexamethasone. The palmitate-albumin conjugate stock solution contained a palmitate solution (2 mM/L in 50% ethanol) and FA-free BSA (2%) and was diluted in lactation medium to provide 50 and 100 μmol/L palmitate concentrations. Orlistat was dissolved in ethanol.
3-D Cell Culture Model: This example recreated the milk production pathway in mammary epithelial cell (MEC) primary cultures. The method uses cell culture inserts to maintain the cell polarity of MECs, which secrete milk components into the apical (upper) compartment from nutrient sources in the basolateral (lower) compartment (FIG. 1). Briefly, the mice (N=6) were euthanized, and the 4th abdominal mammary glands from both sides were collected in PBS buffer for the isolation of MECs. The mammary glands were minced and incubated in RPMI-1640 medium containing collagenase III (1.5 mg/mL) for 2 h at 37° C. with gentle shaking, followed by centrifugation (600×g for 1 min). The pellet was re-suspended in RPMI-1640 with 0.2% trypsin for 5 min at room temperature. The fragments of the mammary epithelium were dissociated by gentle pipetting with a Pasteur pipette and centrifuged (600×g for 1 min), and the pellet was re-suspended in 60% FBS (fetal bovine serum) followed by centrifugation (10×g for 1 min). The trypsin treatment and centrifugation with FBS were repeated for the isolation of mammary epithelial fragments without contaminating cells, such as fibroblasts, adipocytes, and myoepithelial cells. The epithelial fragments (0.1 mg) were subsequently seeded in 24-well cell culture plates with inserts to separate the basolateral chamber containing the lactogenic medium (nutrients) and the apical chamber containing the secreted MEC “milk”. The cells were cultured for 6 days at 37° C. in growth medium placed in the basolateral chamber. To induce lactogenesis, MECs were cultured in lactogenic medium placed in the basolateral and apical chambers for 2 days at 37° C. To induce a high milk production ability, MECs were cultured at 39° C. with the lactogenic medium in the basolateral chamber and with RMPI-1640 in the apical chamber (FIG. 1).
Treatments: Palmitate (50, 100 μmol/L) or the lipase inhibitor orlistat (100 μmol/L) together with palmitate (100 μmol/L) were added to the lactogenic medium within the basolateral chamber, and RPMI-1640 was maintained in the apical chamber. After 48 h, MECs and apical medium were collected separately for analysis, as described below.
Sample Analysis: Henceforth, we refer to cellular MECs as “MECs” and to apical medium as MEC “milk”. MECs were fixed for immunostaining or stored at −80° C. for protein and mRNA expression studies. MEC “milk” was frozen at −80° C. and analyzed for triglyceride concentration and protein and mRNA expression.
Western Blot: The cells were harvested and dissolved in RIPA solution with a protease inhibitor cocktail and sonicated, and the cell lysates were processed for the analysis of protein concentration by the […] Protein Assay Kit. For the detection of pSTAT5, the protein phosphatase inhibitor NaF (50 mM) was added to all buffers. MEC protein expression of β-casein (25 kDa), FAS (270 KDa), SREBP1 (68 KDa), and pSTAT5 (92 KDa) was analyzed.
MEC “milk” was similarly analyzed for protein expression of β-casein.
RT-PCR: The mRNA abundance of the target genes (lipoprotein lipase, LPL; FAS) and the reference gene (18S) in MEC and MEC “milk” was determined by RT-PCR. Briefly, RNA was extracted following the manufacturer's instructions, using the RNeasy Mini Kit (Qiagen, Valencia, CA, USA). Briefly, a guanidine-thiocyanate-containing lysis buffer and ethanol were added to the samples to promote the selective binding of RNA to the RNeasy membrane. […]

[3] = humans; cited from earlier work
in vitro cultures = experiment: Cell viability of in vitro cultures with orlistat; type: cell-based; settings: orlistat 250 μM, orlistat-to-palmitate ratio 1:1

With CC(=O)N[C@H]1[C@H](O[C@H]2[C@@H](O)[C@@H](CO)O[C@@H](O[C@H]3[C@H](O)[C@@H](O)C(O)O[C@@H]3CO)[C@@H]2O)O[C@H](CO)[C@@H](O[C@@H]2O[C@H](CO)[C@H](O)[C@H](O)[C@H]2O)[C@@H]1O (mixture of isomers) [LNnT, lacto-N-neotetraose] the “L-lactate production by gut microbiota” value (infant gut microbiota) was “increased”.

With CCCCCCCCCCCCCCCC(=O)O [palmitate, palmitate (sodium salt)] the “FITC fluorescence measured in the apical chamber, treated vs non-treated” value [1] was “comparable”, the “MEC "milk" β-casein protein expression” value ([2]; apical medium) was “dose-dependent increase” and the “MEC "milk" β-casein protein expression” value ([2]; apical medium, listed as palmitic) was “increases”. For the same compound, the “MEC "milk" mRNA expression of Fas” value ([2]; apical medium, palmitate 48 h) was “increased”, the “MEC "milk" mRNA expression of Lpl” value ([2]; apical medium, palmitate 48 h) was “increased” and the “MEC mRNA expression of Fas” value ([2]; cellular MECs, palmitate 48 h) was “increased”. For the same compound, the “MEC mRNA expression of Lpl” value ([2]; cellular MECs, palmitate 48 h) was “increased”, the “MEC protein expression of FAS” value ([2]; cellular MECs, palmitate 48 h) was “increased” and the “MEC protein expression of SREBP1” value ([2]; cellular MECs, palmitate 48 h) was “increased”. For the same compound, the “MEC protein expression of pSTAT5” value ([2]; cellular MECs, palmitate 48 h) was “increased”, the “MEC protein expression of β-casein” value ([2]; cellular MECs, palmitate 48 h) was “increased” and the “MEC "milk" triglyceride secretion / concentration” value [2] was “dose-dependent increase”. The “MEC "milk" triglyceride secretion / concentration” value ([2]; listed as Na-palmitate) was “doubled” and the “MEC "milk" triglyceride secretion / concentration” value ([2]; listed as palmitic) was “increases”.

For CCCCCCCCCCC[C@@H](C[C@@H]1OC(=O)[C@H]1CCCCCC)OC(=O)[C@H](CC(C)C)NC=O [orlistat], the “FITC fluorescence measured in the apical chamber, treated vs non-treated” value ([1]; after 48 h treatment, 1 h incubation with FITC) is given as “comparable”, the systemic absorption [3] is given as “minimal” and the “palmitate-induced MEC "milk" triglyceride concentration” value [2] is given as “reversed; also recorded: suppressed”. For the same compound, the “palmitate-induced MEC "milk" triglyceride concentration” value ([2]; listed as Orlistat) was “normalized” and the cell viability (in vitro cultures) was “demonstrated cell viability”.
